Assays:
[1] = tested on: adrenergic; experiment: Adrenergic blocking activity of trimazosin
Source text: This observation might have important clinical implications since other vasodilators may be contraindicated in patients with compensated ischemic heart disease who may develop tachycardia and increased myocardial oxygen requirements [Sonnenblick, et al., N. Engl. J. Med., 285, 688 (1971)] in response to vasodilators.

[2] = tested on: norepinephrine; details: in vivo; cited from earlier work
[3] = tested on: patients with chronic left sided congestive heart failure; experiment: Resting and exercise blood pressure, heart rate, ST-segment depression and cardiothoracic ratio, trimazosin (Example 3); assay type: in vivo, human; details: for Cardiothoracic ratio / Exercise diastolic blood pressure / Exercise heart rate / Exercise systolic blood pressure / Exercise systolic pressure times heart rate/100 / Maximal ST-segment depression below resting level / Resting diastolic blood pressure / Resting heart rate / Resting systolic blood pressure / Resting systolic pressure times heart rate/100: mean
Source text: Sixteen men between 41 and 66 years of age with chronic left sided congestive heart failure were subjects. Twelve patients had coronary heart disease with an old healed myocardial infarction, one patient had alcoholic cardiomyopathy, and three patients had idiopathic cardiomyopathy as the cause of their chronic heart failure. All 16 patients had cardiomegaly on physical examination and on their chest roentgenogram, a left ventricular third heart sound heard by auscultation, and evidence of pulmonary venous congestion on their chest roentgenogram. Their baseline standing blood pressures ranged between 114 and 150 mm. Hg. systolic and 72 and 100 mm. Hg. diastolic.
After baseline measurements, all 16 patients received one capsule of single-blind placebo three times daily for two weeks. The patients then received in a double-blind, randomized study trimazosin or placebo for six weeks. Eight patients received one placebo capsule three times daily for weeks one and two, two placebo capsules three times daily for weeks three and four, and three placebo capsules three times daily for weeks five and six of the double-blind period. Seven patients received one 50 mg. trimazosin capsule three times daily for weeks one and two, two 50 mg. trimazosin capsules three times daily for weeks three and four, and three 50 mg. trimazosin capsules three times daily for weeks five and six of the double-blind period. One patient (patient number five on trimazosin) received one 50 mg. trimazosin capsule three times daily for 32 days.
The patients were seen by one of the investigators, questioned for symptoms, and given a physical examination in the baseline period, at the end of two weeks of single-blind placebo, and at the end of weeks one, two, three, four, five, and six on double-blind medication. A standard 12-lead electrocardiogram and PA and lateral chest roentgenograms were taken in the baseline period, at the end of two weeks of single-blind placebo, and at the end of three weeks and six weeks on double-blind medication.
Two practice treadmill tests were performed by all patients prior to the baseline period. The patients performed a multi-stage uninterrupted treadmill exercise test until the onset of marked dyspnea in the baseline period, and approximately two hours after their morning dose of medication after two weeks of single-blind placebo, after three weeks of double-blindmedication, and after six weeks of double-blind medication. The patients exercised at a treadmill speed of 1.7 m.p.h. and a treadmill grade of 0% for the first 3 min., a treadmill speed of 1.7 m.p.h. and a treadmill grade of 10% for the next 3 min., at a treadmill speed of 2.5 m.p.h. and a treadmill grade of 12% for the third 3 min. period, and then at a treadmill speed of 3.4 m.p.h. and a treadmill grade of 14%.
The patients were monitored by telemetry with simultaneous leads II and V5 throughout exercise. […] blood pressures were recorded with the patients in the sitting and standing positions immediately before exercise, with the patients in the standing position at the end of each completed stage of exercise and at the end of exercise, and with the patients in the sitting and standing positions every 1 min. for at least 5 min. after the end of exercise. Blood pressures were recorded with a mercury sphygmomanometer. The heart rates were measured from the electrocardiographic recordings.
The data listed in Tables 1-4 were analyzed using Student's t test for independent means. Fisher's exact test was used to analyze the data on improvement of symptoms and the data on changes in roentgenographic evidence of pulmonary venous congestion.

[4] = patient number five, four days prior to the myocardial infarction

COc1cc2c(N)nc(N3CCN(C(=O)OCC(C)(C)O)CC3)nc2c(OC)c1OC [trimazosin, 2-hydroxy-2-methylpropyl 4-(4-amino-6,7,8-trimethoxy-2-quinazolinyl)-1-piperazinecarboxylate]
adrenergic blocking activity [1]: does not possess adrenergic blocking activity
digital vascular reactivity to norepinephrine infusion [2]: decreased
norepinephrine uptake and secretion [2]: not affected
resting systolic blood pressure, change compared with placebo ([3]; 3 weeks, p<0.001): significant decrease
resting product of systolic blood pressure times heart rate, change compared with placebo ([3]; 3 weeks, p<0.005): significant decrease
resting diastolic blood pressure, change compared with placebo ([3]; 3 weeks, p<0.025): significant decrease
diastolic blood pressure at the end of exercise, change compared with placebo ([3]; 6 weeks, p<0.005): significant decrease
resting diastolic blood pressure, change compared with placebo ([3]; 6 weeks, p<0.005): significant decrease
resting systolic blood pressure, change compared with placebo ([3]; 6 weeks, p<0.005): significant decrease
resting product of systolic blood pressure times heart rate, change compared with placebo ([3]; 6 weeks, p<0.01): significant decrease
standing systolic blood pressure ([3]; patient number five, after two weeks of 50 mg. three times daily): 104/70
blood pressure, standing position [3, 4]: 104/70
blood pressure, supine position [3, 4]: 106/70
Cardiothoracic ratio ([3]; trimazosin 3 weeks): 0.559
Exercise diastolic blood pressure ([3]; trimazosin 3 weeks): 84.8 mm Hg
Exercise heart rate ([3]; trimazosin 3 weeks): 149.3 beats/min
Exercise systolic blood pressure ([3]; trimazosin 3 weeks): 156.5 mm Hg
Exercise systolic pressure times heart rate/100 ([3]; trimazosin 3 weeks): 236.4
Maximal ST-segment depression below resting level ([3]; trimazosin 3 weeks): 1.31 mm
Resting diastolic blood pressure ([3]; trimazosin 3 weeks): 74.3 mm Hg
Resting heart rate ([3]; trimazosin 3 weeks): 86.3 beats/min
Resting systolic blood pressure ([3]; trimazosin 3 weeks): 116.0 mm Hg
Resting systolic pressure times heart rate/100 ([3]; trimazosin 3 weeks): 100.0
Cardiothoracic ratio ([3]; trimazosin 6 weeks): 0.556
Exercise diastolic blood pressure ([3]; trimazosin 6 weeks): 80.5 mm Hg
Exercise heart rate ([3]; trimazosin 6 weeks): 151.0 beats/min
Exercise systolic blood pressure ([3]; trimazosin 6 weeks): 154.3 mm Hg
Exercise systolic pressure times heart rate/100 ([3]; trimazosin 6 weeks): 235.4
Maximal ST-segment depression below resting level ([3]; trimazosin 6 weeks): 1.31 mm
Resting diastolic blood pressure ([3]; trimazosin 6 weeks): 72.5 mm Hg
Resting heart rate ([3]; trimazosin 6 weeks): 86.5 beats/min
Resting systolic blood pressure ([3]; trimazosin 6 weeks): 112.0 mm Hg
Resting systolic pressure times heart rate/100 ([3]; trimazosin 6 weeks): 96.9
